Assay: recombinant UMI read abundance after kanamycin selection (control-corrected) (log10(CPM+1)); higher = more efficient recombination; extreme values may be limits of the assay; sequences stand for … in AGTGCAGAGAAAATCGGCCAGTTTTCTCTGCCTGCAGTCCGCATGCCGTGGGACCCCTTGGGTTCTAACCTGTTGCCTAGATTTATGCAGCGGACTGCCTTTCTCCCAAAGTGATAAACCGG…AGGTTGGTTTCACT; site = the 11-nt donor
Method in brief: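 Counts of recombinant UMIs were reported as log10(CPM+1). Before that, they were converted to CPM, averaged over replicates and scaled using control-derived factors. They came from PCR across the donor–target junction after Escherichia coli carrying the pair library and target plasmid was plated on IPTG (0.07 mM) plus kanamycin, or unselected, in two replicates each.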
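Also: IS621 bridge recombinase in Escherichia coli cells against a fixed T5 target plasmid.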

Sequence | recombinant UMI read abundance (log10)
AGGAAGACATGGACCGGTTTTCCCGGTAATCCGTATTTGCA (site CAGAAGACTTG) | 1.43
AGGAAGACATGGACCGGTTTTCCCGGTAATCCGTATTTGCA (site CGGAACACTTG) | 0.912
AGGAAGACATGGACCGGTTTTCCCGGTAATCCGTATTTGCA (site CGGAAGACTGG) | 0
AGGAAGACATGGACCGGTTTTCCCGGTAATCCGTATTTGCA (site CGGAAGACTTG) | 0.801
AGGAAGACATGGACCGGTTTTCCCGGTAATCCGTATTTGCA (site CGGAAGACTTT) | 0.95
AGGAAGACATGGACCGGTTTTCCCGGTAATCCGTATTTGCA (site CGGAAGCCTTG) | 0
AGGAAGACATGGACCGGTTTTCCCGGTAATCCGTATTTGCA (site CGGAGGACTTG) | 0.505
AGGAAGACATGGACCGGTTTTCCCGGTAATCCGTATTTGCA (site CGGTAGACTTG) | 1.27
AGGAAGACATGGACCGGTTTTCCCGGTAATCCGTATTTGCA (site CGTAAGACTTG) | 0.977
AGGAAGACATGGACCGGTTTTCCCGGTAATCCGTATTTGCA (site GGCAAGACTTG) | 2.22
AGGAAGACATGGACCGGTTTTCCCGGTAATCCGTATTTGCA (site GGGAAGACTAG) | 0
AGGAAGACATGGACCGGTTTTCCCGGTAATCCGTATTTGCA (site GGGAAGACTTC) | 0
AGGAAGACATGGACCGGTTTTCCCGGTAATCCGTATTTGCA (site GGGAAGACTTG) | 0.614
AGGAAGACATGGACCGGTTTTCCCGGTAATCCGTATTTGCA (site GGGAAGGCTTG) | 0
AGGAAGACATGGACCGGTTTTCCCGGTAATCCGTATTTGCA (site GGGAATACTTG) | 0
AGGAAGACATGGACCGGTTTTCCCGGTAATCCGTATTTGCA (site GGGACGACTTG) | 0.00563
AGGAAGACATGGACCGGTTTTCCCGGTAATCCGTATTTGCA (site GGGCAGACTTG) | 0.837
AGGAAGACATGGACCGGTTTTCCCGGTAATCCGTATTTGCA (site GTGAAGACTTG) | 0
AGGAAGACATGGACCGGTTTTCCCGGTAATCCGTATTTGCA (site TCGAAGACTTG) | 1.81
AGGAAGACATGGACCGGTTTTCCCGGTAATCCGTATTTGCA (site TGAAAGACTTG) | 1.06
AGGAAGACATGGACCGGTTTTCCCGGTAATCCGTATTTGCA (site TGGAAAACTTG) | 0.756
AGGAAGACATGGACCGGTTTTCCCGGTAATCCGTATTTGCA (site TGGAAGACTCG) | 0.00521
AGGAAGACATGGACCGGTTTTCCCGGTAATCCGTATTTGCA (site TGGAAGACTTA) | 0.696
AGGAAGACATGGACCGGTTTTCCCGGTAATCCGTATTTGCA (site TGGAAGACTTG) | 1.16
AGGAAGACATGGACCGGTTTTCCCGGTAATCCGTATTTGCA (site TGGAAGTCTTG) | 0

Sequence | recombinant UMI read abundance (log10)
AGGAAGACATGGACCGGTTTTCCCGGTAATCCGTATTTGCA (site TGGATGACTTG) | 0.00459
AGGAAGACATGGACCGGTTTTCCCGGTAATCCGTATTTGCA (site TGGGAGACTTG) | 0
AGGAAGACATGGACCGGTTTTCCCGGTAATCCGTATTTGTA (site AGGAAGACTTA) | 2.74
AGGAAGACATGGACCGGTTTTCCCGGTAATCCGTATTTGTA (site AGGAAGACTTC) | 0.521
AGGAAGACATGGACCGGTTTTCCCGGTAATCCGTATTTGTA (site AGGAAGACTTG) | 2.11
AGGAAGACATGGACCGGTTTTCCCGGTAATCCGTATTTGTA (site AGGAAGACTTT) | 1.8
AGGAAGGCATGGACCGGTTTTCCCGGTAATCCGTATTTGCA (site AGGAAGACTTG) | 1.98
AGGAAGGCATGGACCGGTTTTCCCGGTAATCCGTATTTGCA (site AGGAAGCCTTG) | 0
AGGAAGGCATGGACCGGTTTTCCCGGTAATCCGTATTTGCA (site AGGAAGGCTTG) | 2.41
AGGAAGGCATGGACCGGTTTTCCCGGTAATCCGTATTTGCA (site AGGAAGTCTTG) | 1.82
AGGAATGCATGGACCGGTTTTCCCGGTAATCCGTATTTGCA (site AGGAAGACTTG) | 0
AGGAATGCATGGACCGGTTTTCCCGGTAATCCGTATTTGCA (site AGGAATGCTTG) | 1.74
AGGACGGCATGGACCGGTTTTCCCGGTAATCCGTATTTGCA (site AGGAAGACTTG) | 0
AGGACGGCATGGACCGGTTTTCCCGGTAATCCGTATTTGCA (site AGGACGGCTTG) | 2.23
AGGACTACATGGACCGGTTTTCCCGGTAATCCGTATTTGAG (site AGGACTACTAT) | 0.00837
AGGACTACATGGACCGGTTTTCCCGGTAATCCGTATTTGAG (site AGGACTACTCT) | 1.54
AGGACTACATGGACCGGTTTTCCCGGTAATCCGTATTTGAG (site AGGACTACTGT) | 0
AGGACTACATGGACCGGTTTTCCCGGTAATCCGTATTTGAG (site AGGACTACTTT) | 0.493
AGGACTACATGGACCGGTTTTCCCGGTAATCCGTATTTGAT (site AGGACTACTAT) | 1.77
AGGACTACATGGACCGGTTTTCCCGGTAATCCGTATTTGAT (site AGGACTACTCT) | 0.00954
AGGACTACATGGACCGGTTTTCCCGGTAATCCGTATTTGAT (site AGGACTACTGT) | 0
AGGACTACATGGACCGGTTTTCCCGGTAATCCGTATTTGAT (site AGGACTACTTT) | 0.00536
AGGACTACATGGACCGGTTTTCCCGGTAATCCGTATTTGCT (site AGGACTACTAG) | 2.5
AGGACTACATGGACCGGTTTTCCCGGTAATCCGTATTTGTC (site AGGACTACTGA) | 2
AGGACTACATGGACCGGTTTTCCCGGTAATCCGTATTTGTC (site AGGACTACTGC) | 0

Sequence | recombinant UMI read abundance (log10)
AGGACTACATGGACCGGTTTTCCCGGTAATCCGTATTTGTC (site AGGACTACTGG) | 0
AGGACTACATGGACCGGTTTTCCCGGTAATCCGTATTTGTC (site AGGACTACTGT) | 1.37
AGGAGCACATGGACCGGTTTTCCCGGTAATCCGTATTTGCA (site AGGAAGACTTG) | 0
AGGAGCACATGGACCGGTTTTCCCGGTAATCCGTATTTGCA (site AGGAGCACTTG) | 2.37
AGGAGGCCATGGACCGGTTTTCCCGGTAATCCGTATTTGAG (site AGGAGGCCTCT) | 0.233
AGGATCTCATGGACCGGTTTTCCCGGTAATCCGTATTTGTG (site AGGATCTCTCA) | 2.92
AGGATTTCATGGACCGGTTTTCCCGGTAATCCGTATTTGCG (site AGGATTTCTCG) | 1.32
AGGCAAACATGGACCGGTTTTCCCGGTAATCCGTATTTGTA (site AGGCAAACTTA) | 1.9
AGGCAGACATGGACCGGTTTTCCCGGTAATCCGTATTTGCA (site AGGAAGACTTG) | 0.346
AGGCAGACATGGACCGGTTTTCCCGGTAATCCGTATTTGCA (site AGGCAGACTTG) | 2.49
AGGCAGACATGGACCGGTTTTCCCGGTAATCCGTATTTGCA (site AGGGAGACTTG) | 0.0572
AGGCAGACATGGACCGGTTTTCCCGGTAATCCGTATTTGCA (site AGGTAGACTTG) | 0.965
AGGCAGACATGGACCGGTTTTCCCGGTAATCCGTATTTGCT (site AGGAAGACTTG) | 0
AGGCAGACATGGACCGGTTTTCCCGGTAATCCGTATTTGCT (site AGGCAGACTAG) | 2.13
AGGCCGGCATGGACCGGTTTTCCCGGTAATCCGTATTTGGC (site AGGCCGGCTGC) | 1.07
AGGCCGGCATGGACCGGTTTTCCCGGTAATCCGTATTTGGC (site CGGCCGGCTGC) | 0
AGGCCGGCATGGACCGGTTTTCCCGGTAATCCGTATTTGGC (site GGGCCGGCTGC) | 0
AGGCCGGCATGGACCGGTTTTCCCGGTAATCCGTATTTGGC (site TGGCCGGCTGC) | 0
AGGCCTACATGGACCGGTTTTCCCGGTAATCCGTATTTGAC (site AGGACTACTGT) | 0.528
AGGCCTACATGGACCGGTTTTCCCGGTAATCCGTATTTGAC (site AGGCCTACTGT) | 2.67
AGGCCTACATGGACCGGTTTTCCCGGTAATCCGTATTTGAC (site AGGGCTACTGT) | 0
AGGCCTACATGGACCGGTTTTCCCGGTAATCCGTATTTGAC (site AGGTCTACTGT) | 0
AGGCGTTCATGGACCGGTTTTCCCGGTAATCCGTATTTGTG (site AGGCGTTCTCA) | 1.09
AGGCTTTCATGGACCGGTTTTCCCGGTAATCCGTATTTGAC (site AGACTTTCTGT) | 0.817
AGGCTTTCATGGACCGGTTTTCCCGGTAATCCGTATTTGAC (site AGCCTTTCTGT) | 0.212
